Consider two substances from patent US20140161767A1, “FOLLICLE-STIMULATING HORMONE (FSH)/LYTIC DOMAIN FUSION CONSTRUCTS AND METHODS OF MAKING AND USING SAME” (BOARD OF SUPERVISORS OF LOUISIANA STATE UNIVERSITY AND …, priority 2012, published 2014).

One test deals with MDA-MB 435S cells. The test can be described thus: In vitro kinetics of cytotoxicity (MTT), MDA-MB-435S cells. The format is cell-based, human. The following applies: all cell lines presenting functional LHRH receptors (MDA-MB-435, MCF-7, OVCAR-3). The text has this:
Membranes of non-cancerous cell lines are neutral and are resistant to cytolytic peptides, in contrast to cancer cell lines, which have a high phosphatidic acid content in their outer membrane.
The breast cancer cell lines studied were MDA-MB-4355 (estrogen receptor alpha negative), MCF-7 and T47D (estrogen receptor alpha positive), ovarian cancer cell lines (OVCAR-3 and SKOV-3), prostate cancer (LNCaP), the non-malignant breast epithelial cell line MCF-10A and the mouse fibroblast cell line NIH:3T3.
Cells were seeded into 96 well plates at a densitiy of 10,000 cells/well. […] Controls contained USP saline or 0.1% TritonX-100™ as reference for 0 and 100% cell death, respectively. […] Cell viability was assessed through formazan conversion assay (MTT assay, (CellTiter 96 Aqueous One, Promega # G3582). Formazan conversion was determined using a BioRad Benchmark Plus microplate spectrophotometer dual wavelengths at 490/630 nm at room temperature).
Data were calculated as fraction of absorption in TritonX-100™ containing wells representing 100% cell death versus 0% cell death in saline containing wells. Cytotoxicity was determined as IC50 using GraphPad Prism version 5.01 for Windows, GraphPad Software, San Diego Calif. […] 4 wells of each individual set of two 96 well plates were compared and analyzed. Statistical analysis for significance was determined by a two-tailed Student's T-test.

For another test, the system named is MDA-MB-435S xenograft. Put plainly: MDA-MB-435S xenograft, minimal effective dose, once weekly for 3 weeks. The class given is in vivo, mice. Here is the method: To determine the minimal effective dose necessary to reduce MDA-MB-435S xenograft weights in a single dose regimen, Nu/Nu female mice, outbred strain, age 5 weeks (Charles River), were injected (s.c.) into the interscapular region with a MDA-MB-435S (passage #249)/Matrigel suspension (2.4×10^6 cells/mouse) [Leuschner 2006].
Each group consisted of 16 mice, which were injected once a week for 3 weeks. A group of 16 mice was sacrificed at the time of treatment start to serve as baseline. Saline injections served as control groups. During the entire study tumor volumes were recorded twice weekly.
Treatment started on day 16 after tumor cell injection when the tumors were established and continued on days 23 and 30. All remaining mice were necropsied 37 days after tumor cell injection.
Treatment response was determined by tumor weights and tumor weight change at necropsy compared to saline controls and untargeted Phor18 treatment. Primary tumors were collected, weighed and prepared for histological evaluation in formalin fixation with […]. Statistical evaluation of data sets were conducted in GraphPad Prizm 4 and significance calculated by Wilcoxon signed-rank test.

The subject of a further test is OVCAR-3 xenograft. Put plainly: OVCAR-3 ovarian cancer xenograft. To be noted: for Tumor weights at necropsy: Phor18-LHRH: 2 and 0.2 mg/kg vs saline and Phor18, p<0.05; for Tumor volume: during treatment. The class given is in vivo. As to the method: The xenograft model of the OVCAR-3 human ovarian cancer cell line that present functional LHRH receptors was used in this study. OVCAR-3 represents a slow growing xenograft model and secretes the tumor marker (cancer antigen 125, or CA125). It's secretion can be used as treatment response and is a measure of drug activity.
In brief, Nu/Nu female mice, inbred strain, age 5 weeks (Harlan-Sprague Dawley) were injected subcutaneously with a NIH:OVCAR-3 cells/Matrigel suspension (4.6×10^6 cells/mouse). Treatment was started on day 33 after tumor cell injection when the tumors were established and continued on days 41 and 47. The doses for the 3 weekly injections were 0.02, 0.2 and 2 mg/kg body weight, given as a single bolus intravenous injection via lateral tail vein administered once a week for three weeks on days 33, 41 and 47. Necropsies were conducted on day 52. Data are presented as mean SEM. Arrows show dosing.
A group of 9 tumor bearing mice was sacrificed on day 33 and served as baseline group. All mice were necropsied 51-52 days after tumor cell injection. Tumor volumes and bodyweights were recorded twice weekly during the study, as well as overall veterinarian examination of mice was conducted.
Primary tumors, liver, kidney, pancreas, heart, lung, and spleen were collected, fixed in formalin and prepared for histological evaluation. Tumor weights were measured at necropsy, part of the tumors were frozen at −80° C. for LH/CG and LHRH receptor assay determination.
As a biomarker for drug activity, CA125 was determined in serum, collected from each individual mouse at necropsy using a Enzyme Linked Immunoassay for quantitative determination of ovarian cancer antigen CA125 (Assay kit Genway, Biotech, Inc. San Diego, Calif., Catalog #40-052-115009, # BC-1013 according to the manufacturer).
LHRH receptor levels were assessed from formalin fixed tumors. Quantitative immunoperoxidase image analysis was conducted with the Ventana Image Analysis System (VIAS) adjunctive computer assisted image analysis system functionally connected to an interactive microscope (Axio Imager). The quantitative analysis was conducted with the program for quantification of Her2/neu receptor that included morphometric and colorimetric analysis. Receptor status results were reported as percentage of cells showing positive staining of the LHRH receptors under the following criteria: 0 non-immunoreactive, 1+: 1-25% positive, 2+: 26 50% positive, 3+: 51-75% positive cells.

A further test deals with PC-3 xenograft. Put plainly: PC-3 prostate cancer xenograft, Phor18-LHRH. The class given is in vivo, mice. The following applies: for Overall efficacy in PC-3 xenografts: mouse, in vivo. As to the method:
PC-3 xenografts untreated cause significant weight loss in mice.
In brief, Nu/Nu male mice, outbred strain, age 6 weeks (Charles River) were injected subcutaneously with a PC-3 cells/Matrigel suspension (1×10^6 cells/mouse). Treatment was started on day 15 after tumor cell injection when the tumors were established and continued on days 22 and 29. The doses for the 3 weekly injections were 2, 0.2 and 0.02 mg/kg body weight, given as a bolus single intravenous injection via lateral tail vein.
A group of 12 tumor bearing mice was sacrificed on day 15 and served as baseline group. All mice were necropsied 35 and 36 days after tumor cell injection. Tumor volumes and bodyweights were recorded twice weekly during the study, as well as overall veterinarian examination of mice was conducted.
Primary tumors, liver, kidney, pancreas, heart, lung, and spleen were collected, fixed in formalin and prepared for histological evaluation. Tumor weights were measured at necropsy, part of the tumors were frozen at 80° C. for LH/CG and LHRH receptor assay determination.

Regarding KFAKFAK KFAKFAK KFAK [Phor18], the “Incubation time to maximum effect” value in the test with MDA-MB 435S cells is 24 h. Moreover, the “Tumor volumes and tumor weights” value in the test with MDA-MB-435S xenograft (mouse, in vivo) is “did not decrease tumor weights or destroy tumor tissue”. In the test on OVCAR-3 xenograft, the “Tumor weights at necropsy” value is “not effective”. Besides, the Tumor volume result in the test on OVCAR-3 xenograft (listed as CLIP71) is listed as “no reduction”. For the same substance, the “Overall efficacy in PC-3 xenografts” value in the test with PC-3 xenograft is “ineffective”.
On to “KFAKFAKKFAKFAKKFAKQHWSYGLRPG [Phor18-LHRH]”, for which the “Incubation time to maximum effect” value with MDA-MB 435S cells was 0.5 to 1 h. The “Remarks / histological evaluation of tumors” value with MDA-MB-435S xenograft (hematoxylin/eosin) is recorded as “significant necrosis”. Moreover, the “Lowest dose with significant necrosis in tumors” value in the test on MDA-MB-435S xenograft (mouse, in vivo) turned out to be 0.0002 mg/kg. In addition, the “Lowest concentration with tumor volume reduction compared to baseline” value in the test with OVCAR-3 xenograft (42 days after tumor cell injection, p<0.001) was 0.2 mg/kg. Moreover, the “Tumor weights at necropsy” value with OVCAR-3 xenograft was “Reduced tumor weights”. The Tumor volume result with OVCAR-3 xenograft and in the test with PC-3 xenograft (during treatment) was “decreased” in each case. Also, the “Dose with greatest tumor regression compared to treatment start” value in the test with OVCAR-3 xenograft (p<0.03 vs baseline) was 0.2 mg/kg. Further, the “Lowest concentration with tumor volume reduction compared to saline controls and CLIP71” value in the test on PC-3 xenograft (22 days after tumor cell injection, p<0.001) was determined as 0.002 mg/kg. Moreover, the “Tumor weights compared to saline controls and CLIP-71” value in the test on PC-3 xenograft (all treated groups) was “significantly reduced”. In the test with PC-3 xenograft, the “Overall efficacy in PC-3 xenografts” value is given as “effective in arresting tumor growth”.
